Data: a melting point compilation (Tetko et al.; mined from patent text by program, amines drawn as free bases though some values may be those of a salt)

Row | melting point [°C] | Structure (SMILES)
1 | 202 to 203 | O=C(O)c1cn(C2CC2)c2cc(N3CCNC(CF)C3)c(F)cc2c1=O (stereo not drawn)
2 | 277 to 281 | O=C(Nc1ccc2nc(S)[nH]c2c1)C(=O)N1CCC(Cc2ccccc2)CC1
3 | 163 to 164 | CCOC(=O)c1cc(=O)c(O)c(-c2ccc(OC)cc2)o1
4 | 184 | CCCc1ccc(C(=O)Nc2ccc3sc(C)nc3c2Cl)cc1
5 | 183 to 185 | Cn1nc(-c2cccnc2)c(C=Cc2ccccc2C(=O)O)c1Cl
6 | 244 | CC(=O)Nc1nc(OC(C)C)c2nc(Cl)ccc2n1
7 | 114 to 115 | CCc1cccc(CC(=O)O)c1OCCCc1cn(-c2ccc(Cl)cn2)nc1C(CC)CC
8 | 122 to 123 | CSCCC(=O)Nc1ccc(-n2nc(C(F)(F)F)cc2C(F)(F)F)cc1
9 | 104 to 106 | CN(C)CCN(CCC12CC3CC(CC(C3)C1)C2)C(=O)NCCCc1ccncc1
10 | 145 to 147 | CCC(CC)N(Cc1ccc(C(=O)O)cn1)S(=O)(=O)c1ccc(F)cc1
11 | 192 to 194 | CC(C)CCNc1nc(N2CCCCC2)nc2c(NCCC(C)C)nc(N3CCCCC3)nc12
12 | 170 | CC(=O)N1CC(=Cc2ccncc2)C(=O)c2ccccc21
13 | 103 | CCOC(=O)C1=C(N2CCCCC2)N=C(C)C(C(=O)OCC)C1c1ccccc1C#N (stereo not drawn)
14 | 160 to 164 | CCOC(=O)c1c(O)c2cccc3c2n(c1=O)CCO3
15 | 59 to 60 | CCCCC(CC)COC(=O)COc1cc(F)ccc1C(=O)NCc1cccc([N+](=O)[O-])c1 (stereo not drawn)
16 | 118 to 121 | CCOc1cc(-n2c(=O)cc(C(F)(F)F)n(C)c2=O)c(F)cc1Cl
17 | 145 to 146 | CC(=O)N1CCC(Nc2ccccc2Oc2ccc(Cl)cc2Cl)CC1
18 | 68 to 70 | CCCCCCNc1ccncc1
19 | 89 to 90 | O=C(c1cc2cc(OCCNC[C@H](O)COc3ccccc3Cl)ccc2o1)N1CCCC1
20 | 75 to 78 | O=c1ccoc2cc(OCCCCCl)ccc12
21 | 53 | CC(O)c1cccc(Cl)c1Cl (stereo not drawn)
22 | 232 to 241 | O=c1c2ccccc2sc2ccc(O)cc12
23 | 142 to 144 | COC(=O)c1cc2cc(OC)c(OC)cc2c(C)c1C(=O)OC
24 | 212 to 214 | Clc1nc2cc(Cl)c(Cl)cc2[nH]1
25 | 279 to 282 | O=C(O)C=Cc1ccc(-n2ccccc2=O)cc1
26 | 74 to 76 | OC1C(COCC(F)(F)F)OC(n2cnc3c(NC4CCCC4)ncnc32)C1O (stereo not drawn)
27 | 190 to 192 | Cn1cc2c3c(c(F)cc2n1)CCC3=O

Row | melting point [°C] | Structure (SMILES)
28 | 235 to 237 | O=C(Nc1ccc(-n2nc(C(F)(F)F)cc2C(F)(F)F)cc1)c1c(F)c(F)cc(F)c1F
29 | 154 to 155 | CCOC(=O)c1nc(-c2cccc(F)c2)c(-c2ccc(=O)n(C(C)C)n2)s1
30 | 83 to 84 | O=Cc1ccc(OCCBr)c2ccccc12
31 | > 300 | Nc1ccc(-c2cnn3c(O)ncnc23)cc1
32 | 179 to 180 | O=S(=O)(NCC(O)(Cn1cncn1)c1ccc(Cl)cc1Cl)c1ccc2ccccc2c1 (stereo not drawn)
33 | 156 to 157 | O=C(O)c1ncsc1S
34 | 259 to 260 | COC1=NC2OC(C(O)c3ccc(Cl)cc3Cl)=C(N)C2C=C1 (stereo not drawn)
35 | 75 to 78 | O=Cc1ccc(OCCN2C(=O)COc3ccccc32)cc1
36 | 53 to 55 | CCCCCCCCCCCCCCCCSCC(CO)OC(=O)NC (stereo not drawn)
37 | 203 to 205 | CN1CN(C(=O)c2c(F)cccc2F)C(=O)N(c2ccc(S(=O)(=O)C(F)F)cc2F)C1
38 | 190 to 192 | COc1ccc2c(c1)CCCC2n1cc[nH]c1=S (stereo not drawn)
39 | 218 to 220 | COc1cc2c(cc1Br)-c1c(Br)c3c(n1CC2)C(=O)N(C(C)(C)C)CCC3
40 | 117 to 118 | CC(=O)Nc1ccc(OCC(F)(F)F)cc1[N+](=O)[O-]
41 | 123 to 124 | OCCN1CCN(Cc2ccc(O)c3ncccc23)CC1
42 | 185 to 187 | CC(C)(C)c1cc(C(=O)NCCOC(=O)c2cc(C(C)(C)C)c(O)c(C(C)(C)C)c2)cc(C(C)(C)C)c1O
43 | 91 to 92 | CCCc1c(OCCCOc2ccc(CC(=O)OC)cc2Br)ccc(C(C)=O)c1O
44 | 74 to 79 | Cc1cccc(N=NC2=NCCS2)c1C
45 | 130 to 136 | CN(C)S(=O)(=O)c1ccc2ccc3ccccc3c(=O)c2c1
46 | 183 to 184 | O=C(O)c1ccc(CO)c2ccccc12
47 | 132 to 134 | CCC12CCC3=C(CCc4cc(OC(C)=O)ccc43)C1CCC2=O (stereo not drawn)
48 | 120 to 122 | Oc1cc(Br)c(Cl)c(Br)c1
49 | 282 to 284 | CCc1c(Cl)sc2[nH]c(=O)c(=O)[nH]c12
50 | 170 | Cc1cccc2c(=O)[nH]c(=O)[nH]c12
51 | 113 to 114 | Cn1ncc(-c2ccccn2)c1S(N)(=O)=O
52 | 201 to 202 | CNC(=O)c1cccc(NC(=O)Cc2cccc3ccccc23)c1
53 | 126 to 128 | C/C(=C\c1ccc(OC(C)C)cc1Oc1ncc(C(F)(F)F)cc1Cl)C(=O)NS(=O)(=O)NCc1cnc(C)cn1

More lines, now with the values behind:

Row | Structure (SMILES) | melting point [°C]
54 | CS(=O)(=O)c1ncc(F)c(N)n1 | 157 to 159
55 | c1ccc2c(c1)CC1(CCN(CCc3c[nH]c4ccccc34)CC1)O2 | 167 to 169
56 | Cc1ccc(C(=O)/C=C/c2c(-c3ccc(F)cc3)nc3sccn23)cc1C | 210 to 213
57 | CCN(CC)CCNC(=O)N1CCCC(S(=O)(=O)c2ccc(OCCOC)cc2)C1 (stereo not drawn) | 98 to 99
58 | CNC(=O)On1cc(Cl)cn1 | 125
59 | CC(=O)Oc1ccc(C[C@H]2CCc3ccccc3O2)cc1 | 64 to 65
60 | COc1c(C)c2c(c(C)c1NC(=O)CC(C)(C)C)C(c1ccc(C(C)C)cc1)CO2 (stereo not drawn) | 162 to 163
61 | NC[C@H]1C=Cc2cc(F)cc(-c3c(Cl)cccc3Cl)c2O1 | 153 to 155
62 | O=C(CCc1c(C(=O)OCCN2CCOCC2)[nH]c2cc(Cl)cc(Cl)c12)OCCN1CCOCC1 | 110 to 112
63 | CC(C)C[C@H](OC(=O)NC1CCCCC1)C(=O)OCc1ccccc1 | 89 to 90
64 | CCc1nc2c(N)nc3ccccc3c2n1CC1(O)CCCCC1 | 217 to 218
65 | CC(=O)NC[C@H]1CN(c2ccc(N3CCC4(CC3)COCCO4)c(F)c2)C(=O)O1 | 114 to 116
66 | COCCN(C1CC(C)(C)Oc2ccc(OCc3ccccc3)cc21)S(C)(=O)=O (stereo not drawn) | 66 to 68
67 | CNC(c1nc(-c2ccc3c(c2)Nc2ccccc2S3)cs1)C(C)C (stereo not drawn) | 130
68 | CCCCCCC(=O)NCCO | 91 to 93
69 | CC(=O)NS(=O)(=O)c1ccc(C2=C(c3ccccc3)C(=O)C(C)(C)O2)cc1Cl | 194 to 195
70 | CCc1cccc(C)c1CNc1cc(C(N)=O)cc2c1nc(C)n2C | 240 to 241
71 | Fc1ccc2[nH]cc(C3=CCN(CC4CCc5ccccc5O4)CC3)c2c1 (stereo not drawn) | 172 to 175
72 | CC#CC1(O)CCC2C3CCC4=CC(=O)CCC4C3C(=CF)CC21CC (stereo not drawn) | 199 to 205
73 | CC(=O)Nc1cccc(-c2cccnc2)c1 | 72 to 74
74 | COC(=O)C(=C\c1ccc(OC2CCCC2)c(OC)c1)/C(=C\c1ccccc1)C(N)=O | 158 to 159
75 | CCCOc1ccc(-c2ccc(=S)[nH]n2)cc1OC | 170
76 | CCNc1nc(C)c(C(=O)c2ccc(N)c(N)c2)s1 | 185 to 225
77 | CC1CCC(C(C)C)C(OC(=O)C2C(=O)N(Cc3ccc(Br)cc3F)C(=O)c3cccn32)C1 (stereo not drawn) | 98 to 99
78 | CC(C)(CCC(C)(C)NCc1ccccc1O)NCc1ccccc1O | 111 to 112
79 | CCOC(=O)CCCCCn1c(C(=O)O)cc2ccccc21 | 62
80 | Cc1ccc2c(c1)c(-c1ccc(F)cc1)c(C)n2C1CCN(CCN2CCNC2=O)CC1 | 188 to 190
81 | Cc1cccc(-c2ccnc3c(C(=O)N=CN(C)C)cnn23)c1 | 165 to 166

Row | Structure (SMILES) | melting point [°C]
82 | CO/N=C(\C(=O)OCCSc1nc2ccccc2s1)c1csc(NC=O)n1 | 172 to 173
83 | CCCCc1nccn1Cc1c(F)cccc1Cl | 106 to 108
84 | C(=NC1CN2CCC1CC2)c1ccc(-c2ccccc2)cc1 (stereo not drawn) | 82 to 84
85 | CC(=O)Nc1c(C)c(C)c2c(c1C)CC(C)(CN1CCC(c3ccccc3)CC1)O2 (stereo not drawn) | 94 to 96
86 | Clc1ccc2[nH]cc([C@H]3CC[C@@H](N4CCN(c5cccc6[nH]ccc56)CC4)CC3)c2c1 | 283 to 285
87 | O=C(c1ccc(CBr)cc1)c1c(Cl)cccc1Cl | 126 to 130
88 | O=C(O)C(O)P(=O)(O)O (stereo not drawn) | 153 to 154
89 | OC/C(=C(\CO)c1ccccc1)c1ccccc1 | 79
90 | CC1(C)CCC(NC(N)=O)CC1 | 174 to 176
91 | COC(=O)c1cc(-c2cccc(Cl)c2)sc1N | 85 to 87
92 | CC1(C)CCC(C)(C)c2cc([N+](=O)[O-])ccc21 | 46 to 50
93 | Cc1cc(OC(=O)N(C)C)nc(C(Cl)(Cl)Cl)n1 | 83.5 to 84.5
94 | Cc1ccc(O)c(Cn2ccnc2)n1 | 153 to 155
95 | COc1cc([N+](=O)[O-])c(O)c(OC)c1OC | 72 to 73
96 | N#CCCc1cc(N2C(=O)C3=C(CCCC3)C2=O)ccc1Cl | 87 to 97
97 | N#Cc1ccccc1-c1cc(-c2cnc3nccnn23)ccc1F | 211 to 215
98 | Nc1cccc2c(OCc3ccccc3)ccnc12 | 115
99 | CC1(CC(=O)O)SCCC2=C1Cc1ccccc12 (stereo not drawn) | 119 to 121
100 | c1ccc(C(OC2CCN(CCCn3cnc4ccccc43)CC2)c2ccccc2)cc1 | 110
101 | O=C(NCc1ccc(Cl)cc1)c1cn(CCCOC2CCCCO2)c2c(F)cc(CO)cc2c1=O (stereo not drawn) | 148 to 150
102 | CCC12CCC(=O)C=C1c1c(cc(O)c(Cl)c1Cl)C2 (stereo not drawn) | 260 to 265
103 | NC(=O)CN1CCN(C(=O)c2cc(C(F)(F)F)cc(C(F)(F)F)c2)[C@H](Cc2c[nH]c3ccccc23)C1 | 170 to 173
104 | CCCCCCC(=O)C=Cc1ccc(O)c(O)c1 | 114 to 115
105 | O=C(O)CCCCc1c([N+](=O)[O-])cc(O)c(O)c1[N+](=O)[O-] | 135 to 139
106 | CCN1CCN(C(=O)OC2C3=C(SCCS3)C(=O)N2c2ccc(Cl)cn2)CC1 (stereo not drawn) | 140
107 | Cc1c(-c2cc(Cl)cc(Cl)c2)ccc(N)c1C#N | 182
108 | COC(=O)CCCc1cc2nc(C(F)(F)F)ccc2n1S(=O)(=O)c1ccc2c(c1)OCCN2C | 118
